Literature values in patent publication US6548045B2, “Nitroimidazole substituted porphyrin complex” (Photochemical Co., Ltd., priority 1999, dated 2003).

Tests used:
anoxic tissues in tumor [1] = conditions: animal experiment implanting tumor
anoxic tissues in tumor [2] = conditions: in vivo
[3] = in vivo

Which results are given for COCC(O)Cn1ccnc1[N+](=O)[O-] (stereo not drawn) [Misonidazole]?
efficacy compared with absence of the compound (anoxic tissues in tumor [1]): twice times more efficacies; efficacy in the human being (anoxic tissues in tumor [2]): no efficacy is observed; neurotoxicity [3]: high neurotoxin
